The results in this text go back to PubChem BioAssay (NCI).

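Test compounds were applied to cells in 96-well plates for 48 hours at 5 doses. GI50 marks 50% less growth. At the TGI there is no net growth.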

Among the test systems are SR leukemia; SN12C renal; HOP-92 NSCLC; U251 CNS; OVCAR-8 ovarian; RXF 393 renal; HOP-62 NSCLC; UACC-257 melanoma; SF-295 CNS; HL-60(TB) leukemia.
Common to all, as to experiment: NCI anticancer screen, dose series, 48 h

Consider `O=C1NC(O)C(c2c[nH]c3ccccc23)=C1c1c[nH]c2ccccc12` (stereo not given), for which the GI50 with SR leukemia is more than 23.7 µM; in the assay on SN12C renal, more than 25 µM; with HOP-92 NSCLC, 4.42 µM; in the assay on U251 CNS, more than 25 µM; in the assay on OVCAR-8 ovarian, more than 25 µM; in the assay on RXF 393 renal it was more than 25 µM. In addition, the GI50 in the assay with HOP-62 NSCLC, with UACC-257 melanoma, with SF-295 CNS and with HL-60(TB) leukemia was more than 25 µM throughout. The TGI in the assay with SR leukemia, with SN12C renal, with HOP-92 NSCLC, in the assay on U251 CNS, in the assay on OVCAR-8 ovarian and in the assay with RXF 393 renal was more than 25 µM in each case. Besides, the TGI in the assay on HOP-62 NSCLC, with UACC-257 melanoma, in the assay with SF-295 CNS and in the assay on HL-60(TB) leukemia was more than 25 µM each time.

As to `COc1ccc(/C=C/C(=O)c2ccc(SC)cc2)cc1OC`, the GI50 in the assay on SR leukemia was 3.06 µM; in the assay on SN12C renal, 13 µM; in the assay with HOP-92 NSCLC, 13.7 µM; with U251 CNS it was 3.53 µM; in the assay with OVCAR-8 ovarian, 16.5 µM; with RXF 393 renal it was 12.7 µM. The GI50 in the assay with HOP-62 NSCLC was 18.8 µM; in the assay with UACC-257 melanoma, 17 µM; in the assay on SF-295 CNS, 6.47 µM; in the assay on HL-60(TB) leukemia it was 25.7 µM. Moreover, the TGI with SR leukemia stood at 42.9 µM; with SN12C renal, 26.5 µM; in the assay on HOP-92 NSCLC it was 31.2 µM; with U251 CNS, 13.8 µM; in the assay with OVCAR-8 ovarian, 44 µM; in the assay on RXF 393 renal, 29.4 µM. Also, the TGI stood at 42.2 µM in the assay with HOP-62 NSCLC, 30.9 µM in the assay with UACC-257 melanoma, 40.2 µM in the assay on SF-295 CNS and 79.6 µM with HL-60(TB) leukemia.

In the case of `Cc1cc2nc(CCC(=O)O)c(=O)[nH]c2cc1C`, the TGI in the assay with SR leukemia, with SN12C renal, in the assay on HOP-92 NSCLC, with U251 CNS, in the assay on OVCAR-8 ovarian and in the assay with RXF 393 renal was more than 100 µM throughout. The TGI in the assay with HOP-62 NSCLC, with UACC-257 melanoma, in the assay on SF-295 CNS and in the assay with HL-60(TB) leukemia was more than 100 µM in each case.

As for `CCCCCC/C=C1\CCC(CN2CCCC2)C1=O` (stereo not given), the TGI in the assay on SR leukemia was more than 22.4 µM; in the assay on SN12C renal, 27 µM; with HOP-92 NSCLC, 32.4 µM; in the assay on U251 CNS, 30 µM; in the assay with OVCAR-8 ovarian, 39.2 µM; in the assay on RXF 393 renal it was 33.5 µM. In addition, the TGI amounted to 34.2 µM in the assay on HOP-62 NSCLC, 32.7 µM with UACC-257 melanoma and 34.1 µM in the assay with SF-295 CNS.

Consider `Oc1ccccc1C=NCc1ccco1`, for which the TGI in the assay on SR leukemia, in the assay with SN12C renal, with U251 CNS, in the assay with OVCAR-8 ovarian, in the assay on RXF 393 renal and in the assay on HOP-62 NSCLC was more than 100 µM in each case. Also, the TGI in the assay on UACC-257 melanoma, in the assay on SF-295 CNS and in the assay on HL-60(TB) leukemia was more than 100 µM throughout.

Regarding `O=C(CC1(O)C(=O)Nc2c(Cl)ccc(Cl)c21)c1ccc2ccccc2c1` (stereo not given), the TGI was found to be 7.62 µM in the assay on SR leukemia; 31.3 µM with SN12C renal; 61.3 µM in the assay with U251 CNS; 38.3 µM with OVCAR-8 ovarian; 27 µM with RXF 393 renal; 99.2 µM with HOP-62 NSCLC. Also, the TGI is 25.3 µM in the assay on UACC-257 melanoma, 27.7 µM in the assay on SF-295 CNS and 4.04 µM in the assay with HL-60(TB) leukemia.

`CC(=O)OC1COC(Nc2ccc(C(C)=O)cc2)C(OC(C)=O)C1OC(C)=O` (stereo not given): the TGI with SR leukemia, in the assay on SN12C renal, in the assay with HOP-92 NSCLC, with U251 CNS, with OVCAR-8 ovarian and in the assay on RXF 393 renal was more than 100 µM in each case. In addition, the TGI in the assay with HOP-62 NSCLC, in the assay on UACC-257 melanoma and in the assay with SF-295 CNS was more than 100 µM throughout.

Turning to `O=C(c1ccco1)c1nc2cc(Cl)ccc2[n+]([O-])c1C(F)(F)F`, the GI50 is 17.1 µM in the assay with SR leukemia; 91 µM in the assay with SN12C renal; 70.9 µM in the assay with U251 CNS; 57.1 µM in the assay with OVCAR-8 ovarian; 19.5 µM in the assay on RXF 393 renal; 76.7 µM with HOP-62 NSCLC. The GI50 in the assay on UACC-257 melanoma was 4.07 µM; in the assay on SF-295 CNS, 94 µM; in the assay on HL-60(TB) leukemia, 24.3 µM. Further, the TGI with SR leukemia is 44.3 µM; in the assay on SN12C renal, more than 100 µM; with U251 CNS it was more than 100 µM; in the assay on OVCAR-8 ovarian, more than 100 µM; in the assay on RXF 393 renal, 59.2 µM; in the assay on HOP-62 NSCLC it was more than 100 µM. In addition, the TGI is 32.9 µM in the assay with UACC-257 melanoma, more than 100 µM in the assay on SF-295 CNS and 46.8 µM with HL-60(TB) leukemia.

As for `CCC1(c2c(F)c(F)c(N)c(F)c2F)CCC(=O)NC1=O` (stereo not given), the TGI with SR leukemia, with HOP-92 NSCLC, in the assay with U251 CNS, with OVCAR-8 ovarian, in the assay on HOP-62 NSCLC and in the assay on UACC-257 melanoma was more than 100 µM in each case. Moreover, the TGI in the assay with SF-295 CNS and in the assay with HL-60(TB) leukemia was more than 100 µM in each case.

As to `Oc1cc(O)c2c(-c3c(O)c(-c4ccc(O)c(O)c4)[o+]c4cc(O)cc(O)c34)c(O)c(-c3ccc(O)c(O)c3)[o+]c2c1`, the TGI in the assay on SR leukemia is 74.8 µM; in the assay on SN12C renal it was more than 100 µM; in the assay with HOP-92 NSCLC it was more than 100 µM; in the assay with U251 CNS, more than 100 µM; in the assay on OVCAR-8 ovarian, more than 100 µM; with RXF 393 renal it was 81.1 µM. Further, the TGI in the assay with HOP-62 NSCLC was 97.8 µM; with UACC-257 melanoma, more than 100 µM; in the assay with SF-295 CNS, more than 100 µM.

On to `CN(C)c1ccc([O][Bi]([Cl])[Cl])cc1`, for which the GI50 in the assay with SR leukemia is 80.1 µM; in the assay with SN12C renal it was more than 100 µM; with U251 CNS, more than 100 µM; with OVCAR-8 ovarian it was 53.2 µM; in the assay with RXF 393 renal, 82.2 µM; in the assay with UACC-257 melanoma, 37.2 µM. In addition, the GI50 with SF-295 CNS was more than 100 µM. The TGI in the assay on SR leukemia, in the assay with SN12C renal, with U251 CNS, in the assay with OVCAR-8 ovarian, in the assay on RXF 393 renal and with UACC-257 melanoma was more than 100 µM in each case. Besides, the TGI with SF-295 CNS is more than 100 µM.
